Assay [1] has as its system thrombin generation in murine Balb/c plasma with rhAPC. Nature of the assay: Thrombin generation in murine Balb/c plasma in the presence of rhAPC. The assay is classed as biochemical, mouse. Here is the method:
(§1) BU titer values for FVIII antibodies added to FVIII-deficient plasma were determined using a modified Nijmegen Bethesda assay (Barrow and Lollar; JTH 2006, 4:2223-2229). Briefly, antibody was serially diluted in HBS with 0.05% Tween 80 and mixed 1:1 with pooled normal plasma that was supplemented with 100 mM Imidazole, pH 7.0. Samples were incubated at 37° C. for 2 hours then assayed by aPTT with APTT XL reagent (Pacific Hemostasis). A standard curve was derived from a serial dilution of normal plasma into FVIII deficient plasma that was also mixed 1:1 with HBST and incubated at 37° C. for 2 hours. Percent FVIII activity was plotted versus mg/ml of antibody and residual activity of 50% was defined as 1 BU/ml. In addition, endogenous thrombin potential (ETP) assays were performed as described (3). Briefly FVa mutants or saline were added to human or murine plasma (George King Bio-Medical; mouse source, 50% v/v) supplemented with […] corn trypsin inhibitor (Haematologic Technologies), 10 mM CaCl2, 10 μM phospholipid vesicles (80% phosphatidylcholine, 20% phosphatidylserine, prepared as described (6), 0.2 pM soluble tissue factor (Innovin®, Dade Behring), and 0.4 mM Z-Gly-Gly-Arg-AMC (thrombin substrate, Bachem) in HBS. After mixing, 100 μL was transferred to a FluoroNunc microtiter plate at 37° C. to monitor fluorescence (excitation at 360 nm/emission at 460 nm; Gemini EM fluorescent plate reader (Molecular Devices)). Fluorescence time course data were converted to nM thrombin as described (7). ETP, defined as the area under the curve, was determined using Prism 5.04 (Graphpad).
(§2) APC-mediated inactivation of FVa was analyzed in ETP assays and aPTT clotting assays. FVa mutants were incubated with equal volumes of either recombinant human APC (Xigris®) or buffer in human and murine Balb/c plasma.

The next assay has as its system Balb/c mice. Nature of the assay: Tail clip bleeding assay, APC-induced bleeding in Balb/c mice. The format is in vivo, mouse. How it is done: Mice were anesthetized with Isoflurane 3%, placed on temperature controlled heating pads (37° C.), and the distal portion of the tail was cut at 1.5 mm diameter after which the tail was immersed in a predefined volume of 37° C. saline (0.9% NaCl) for 20 minutes. To study effects on bleeding and clot stability, tubes were changed after 10 minutes to collect blood for the first and second 10 minutes separately. Blood loss was determined by the hemoglobin concentration in the saline solution after red cell lysis with 2% acetic acid and measured by absorbance at 490 nm. Using a hemoglobin standard derived from defined blood volumes, blood loss was calculated assuming a hematocrit of 46% and expressed in μL/g body weight. Groups of Balb/c mice were injected intravenously (tail vein) with equal volumes (200 μL) of ^superFVa or saline 2 minutes prior to intravenous injection of rhAPC (Xigris®). Immediately after APC injection tail cut was performed. All agents were diluted in sterile sodium chloride 0.9% for injection (Hospira Inc).

The subject of assay [2] is thrombin generation in normal human plasma. As to the kind of experiment: Thrombin generation in NHP in the presence of rivaroxaban or apixaban. The format is biochemical. The note with it: factor alone: rhFVIIa 2 μg/ml, ^superFVa 400 nM; NOAC 200 nM. Here is the method: Thrombin generation or Endogenous Thrombin Potential (ETP) assays were performed as described. Briefly, plasma samples supplemented with CTI, TF, PCPS were preincubated […] in the presence or absence of rivaroxaban, apixaban, Kcentra®, NovoSeven® or ^superFVa. Thrombin generation was initiated by addition of CaCl2 and Z-Gly-Gly-Arg-AMC in HBS/0.5% BSA. The final reaction mixture contained, 50% plasma, 0.725 μM CTI, 0.2 Pm TF, 4 μM PCPS vesicles, 0.5 mM Z-GGR-AMC, 7.6 mM CaCl2 in a total volume of 100 μl. Concentrations of rivaroxaban, apixaban, Kcentra®, NovoSeven® or ^superFVa are indicated in the result section and in the figure legends. Fluorescence was measured at excitation/emission wavelengths of […] using Gemini EM fluorescent plate reader (Molecular Devices). Fluorescence time course data were converted to Nm thrombin as described. ETP, defined as the area under the curve (AUC) and the peak height were determined using Origin software.

The test system of assay [3] is thrombin generation in FVIII-deficient plasma. Nature of the assay: Thrombin generation (ETP) assay in FVIII-deficient plasma. The note with it: increasing concentrations of ^superFVa alone. The format is biochemical, human. How it is done: Endogenous thrombin potential (ETP) assays were performed as described (19). Briefly, plasma samples supplemented with CTI, TF, PCPS vesicles and coagulation factors were preincubated with the plasma at 37° C. Thrombin generation was initiated by addition of CaCl2 and Z-Gly-Gly-Arg-AMC in HBS/0.5% BSA. The final reaction mixture contained, 50% plasma, 0.2 pM TF, […] PCPS vesicles, 0.725 μM CTI, 0.5 mM Z-GGR-AMC and 7.6 mM CaCl2 in a total volume of 100 μL. In some experiments, 1.25 μg/ml anti-FVIII antibody was added to the plasma and ETP was determined after 1 hour of preincubation. Fluorescence was measured at excitation/emission wavelengths of […] using Gemini EM fluorescent plate reader (Molecular Devices). Fluorescence time course data were converted to nM thrombin as described (20). ETP, defined as the area under the curve (AUC) and the peak height were determined using Origin or GraphPad Prism software.

The subject of assay [4] is thrombin generation in normal human plasma with rhAPC. As to the kind of experiment: Thrombin generation in normal human plasma in the presence of rhAPC. The format is biochemical. How it is done:
as §1, §2

This note sets out measurements from patent US10407488B2, “Therapy for treatment or prevention of conditions associated with bleeding or hypocoagulation” (THE REGENTS OF THE UNIVERSITY OF CALIFORNIA, priority 2013, dated 2019).

“^superFVa: engineered APC-resistant FVa variant (SEQ ID NO:4): R306Q, R506Q, R679Q, Cys609-Cys1691 disulfide, S2183A, B-domain deleted”: the ETP restored in assay [1] (ETP maximally suppressed by APC) is 90-100%; in assay [4] (human plasma, ETP maximally suppressed by APC), 90-100%. In addition, the “effect on thrombin generation suppressed by APC” value in assay [1] (concentrations where ^superFVa restores) is given as “fully restored thrombin generation”; in assay [4] (human plasma, concentrations where ^superFVa restores), “fully restored thrombin generation”. The mean blood loss in the assay with Balb/c mice (^superFVa 5 U/mL 2 minutes prior to APC 1.25 mg/kg, 20 minutes) came out at 21 µL/g; in the assay on Balb/c mice (^superFVa 25 U/mL 2 minutes prior to APC 1.25 mg/kg, 20 minutes) it was 9.2 µL/g; in the assay with Balb/c mice (^superFVa 25 U/mL + APC, first 10 minutes) it was 4.3 µL/g; in the assay with Balb/c mice (^superFVa 25 U/mL + APC, second 10 minutes) it was 4.8 µL/g; in the assay on Balb/c mice (^superFVa iv 3.5 mg/kg 2 min prior to wt APC 1.25 mg/kg) it was 9.2 µL/g. In addition, the “ability to enhance the ETP of NHP suppressed with rivaroxaban or apixaban” value in assay [2] was “nor ^superFVa at high concentration (400 nM) were able to enhance the ETP”. Moreover, the “increase in ETP” value in assay [3] is approximately 2.5 fold. Besides, in assay [3], the “increase in peak height” value is approximately 2.5 fold. The “rescue of APC-induced reduction of thrombin generation” value in assay [4] (factor alone, rhAPC, normal human plasma (FIG. 16)) is given as “corrected thrombin generation to levels to those of normal human plasma”.
